# Measured values from PMC3172881 (Cancer cell, 2011).
# Tests used:
# [1] = tested on: mEP^Ephb2-LUC brain tumors; test: Orthotopic allograft efficacy study, bioluminescence and survival; format: in vivo, mouse; conditions: for survival of mice harbouring mEP^Ephb2-LUC tumors / rate of mEP^Ephb2-LUC tumor growth: 5-FU 75 mg/kg i.v. once weekly, bortezomib 0.8 mg/kg i.v. twice weekly; for rate of mEP^Ephb2-LUC tumor growth: bioluminescence
# [2] = 5-FU pharmacokinetics, tumor microdialysis and plasma; format: in vivo, mouse
# [3] = Tolerability of 5-FU infusion via Alzet pumps; format: in vivo, mouse; conditions: 13 mg/kg/hour via Alzet pumps; unacceptably toxic
# [4] = tested on: subventricular zone (SVZ) of Prom1^+/C-L mice; test: In vivo NSC toxicity: ApoTag, DCX and LacZ; conditions: for number of Prom1^+ cells in the SVZ / number of apoptotic cells in the SVZ: ±SEM; for number of apoptotic cells in the SVZ: ApoTag
# mEP^Ephb2 cells = test: HTS activity against ependymoma cells; format: cell-based, mouse; conditions: result in words
# IGF1R = test: Western blot of IGF1R signalling in mEP^Ephb2 cells stimulated with IGF2; format: cell-based, mouse
# [5] = tested on: mEP^Ephb2, mBT^NICD1, NSC^wt and NSC^null cells; format: cell-based, mouse; conditions: for cell-selective activity class in HTS: class from average EC50 in each of four cell types, secondary screen
smiles,measurement,setting,value
"O=c1[nH]cc(F)c(=O)[nH]1 [5-FU, 5-fluorouracil]",survival of mice harbouring mEP^Ephb2-LUC tumors,[1],significantly prolonged
same,rate of mEP^Ephb2-LUC tumor growth,[1],halved
same,activity against mEP^Ephb2-LUC brain tumors,[1]; delivered subcutaneously via Alzet pumps,inactive
same,time the tumor concentration was maintained,"[2]; 13 mg/kg/hour via Alzet pumps, ~10 μM",over 24 hours
same,time brain tumor concentration remained above 10μM,[2]; intravenous bolus 75 mg/kg,approximately 1 hour
same,peak concentration in brain tumors,"[2]; intravenous bolus 75 mg/kg, microdialysis, ±79 S.D.",800 µM
same,tumor drug levels,[2]; subcutaneous infusion 1.03 mg/kg/hour,failed to generate detectable tumor drug levels
same,weight loss,[3],≥ 20%
same,DCX^+ labelling in the SVZ,[4]; four weeks of therapy,returned to control levels
same,apoptotic labelling in the SVZ,[4]; four weeks of therapy,returned to control levels
same,area of DCX^+ neuroblast rests in the SVZ,[4]; two weeks of therapy,2.2 μm^2 per μm ventricular surfac
same,number of Prom1^+ cells in the SVZ,[4]; two weeks of therapy,35.1%
same,number of apoptotic cells in the SVZ,[4]; two weeks of therapy,12.0±1.7
COc1cc2c(cc1Nc1nc(Nc3ccsc3C(N)=O)c3cc[nH]c3n1)N(C(=O)CN(C)C)CCC2 [GSK2110236A],activity against mEP^Ephb2 cells in HTS,mEP^Ephb2 cells,potent inhibitor
same,IGF1R and its downstream signal,IGF1R,blocked
C/C=C(\C)C(=O)O[C@H]1[C@H](OC(C)=O)[C@@]2(CO)C(CC1(C)C)C1=CC[C@@H]3[C@@]4(C)CC[C@H](O[C@@H]5O[C@H](C(=O)O)[C@@H](O[C@@H]6O[C@H](CO)[C@@H](O)[C@H](O)[C@H]6O)[C@H](O)[C@H]5O[C@@H]5O[C@H](CO)[C@@H](O)[C@H](O)[C@H]5O)[C@H](CO)C4CC[C@@]3(C)[C@@]1(C)C[C@H]2O (stereo partly drawn) [beta-escin],cell-selective activity class in HTS,[5],ependymoma selective
CC(C)C[C@H](NC(=O)[C@H](Cc1ccccc1)NC(=O)c1cnccn1)B(O)O [bortezomib],activity against mEP^Ephb2 cells in HTS,mEP^Ephb2 cells,highly potent
same,survival of mice harbouring mEP^Ephb2-LUC tumors,[1],significantly prolonged
same,rate of mEP^Ephb2-LUC tumor growth,[1],halved
same,DCX^+ labelling in the SVZ,[4]; four weeks of therapy,returned to control levels
same,Prom1^+ cell numbers in the SVZ relative to controls,[4]; four weeks of therapy,> 2.5 times
same,apoptotic labelling in the SVZ,[4]; four weeks of therapy,returned to control levels
same,number of Prom1^+ cells in the SVZ,[4]; four weeks of therapy,57.8%
same,area of DCX^+ neuroblast rests in the SVZ,[4]; two weeks of therapy,6.0 μm^2 per μm ventricular surfac
same,number of Prom1^+ cells in the SVZ,[4]; two weeks of therapy,39.2%
same,number of apoptotic cells in the SVZ,[4]; two weeks of therapy,22.2±5.1
N.N.O=C([O-])C1(C(=O)[O-])CCC1.[Pt+2] [carboplatin],activity against mEP^Ephb2 cells in HTS,mEP^Ephb2 cells,Neither carboplatin nor irinotecan were active
CCc1c2c(nc3ccc(OC(=O)N4CCC(N5CCCCC5)CC4)cc13)-c1cc3c(c(=O)n1C2)COC(=O)[C@]3(O)CC [irinotecan],activity against mEP^Ephb2 cells in HTS,mEP^Ephb2 cells,Neither carboplatin nor irinotecan were active
CS(=O)(=O)CCNCc1ccc(-c2ccc3ncnc(Nc4ccc(OCc5cccc(F)c5)c(Cl)c4)c3c2)o1 [lapatinib],activity against mEP^Ephb2 cells in HTS,mEP^Ephb2 cells,inactive
CC[C@@]1(O)C(=O)OCc2c1cc1n(c2=O)Cc2cc3c(CN(C)C)c(O)ccc3nc2-1 [topotecan],EC50,"[5]; Mus musculus, 96 h",200 to 700 nM
same,cell-selective activity class in HTS,[5],equipotent
